Laboratory results: patent US6761913B2, “Extracts of celery seed for the prevention and treatment of pain, inflammation and gastrointestinal irritation” (priority 1998, dated 2004)

Tests used:
[1] = system: adjuvant-induced arthritis; assay: Experimental (adjuvant-induced) polyarthritis in rats, treatment of established arthritis; assay type: in vivo, rat; settings: for Mean % Inhibition of Arthritis Score / Mean % Inhibition of Fore Paw Swelling / Mean % Inhibition of Rear Paw Swelling: per os, mg/kg per day: A-CSE 350, S-CSE 50, Aspirin 150 × 2, Ibuprofen 50, Naproxen 25; for Mean % Inhibition of Arthritis Score: days 10-13, day 14, independent observer; for Mean % Inhibition of Fore Paw Swelling / Mean % Inhibition of Rear Paw Swelling: days 10-13, measured day 14; for anti-inflammatory activity: tested at 50 mg/kg
[2] = system: NSAID-induced gastric lesions; assay: Gastric injury caused by aspirin/NSAIDs in pre-sensitised (pre-inflamed) rats, gastroprotection assay; settings: for incidence of gastric lesions and bleeding: pre-inflamed rats, aspirin 100 mg/kg, Naproxen 10 mg/kg, Ketoprofen 5 mg/kg orally, Piroxicam 5 mg/kg intraperitoneally
Description: This model comprises oral or parenteral non-steroidal anti-inflammatory drugs (NSAIDs) given to rats whose gastrointestinal mucosa is pre-sensitized by prior development of arthritis or oleyl alcohol-induced inflammation. The animals are pre-sensitized by injection of an arthritogenic adjuvant or 0.1 ml oleyl alcohol 5 days prior to the assay.
The disease stress was induced five days previously either by injecting an arthritigenic adjuvant or 0.1 ml oleyl alcohol into the tail base to incite severe local inflammation. […] A-CSE or S-CSE was given orally within 20 seconds of the aspirin/NSAID. The number (N) and severity (S, graded on a score of 0 to 4 based on increasing area of injury) of gastric lesions as well as the percentage incidence of animals (%I) with gastric damage was recorded. The lesion index (LI) was then calculated as: LI=N/n+S/n+%I/10, where n=number of animals per group.
Gastroprotective activity was assessed in fasted (overnight) arthritic rats challenged with 50 mg/kg Ibuprofen given orally to induce gastric bleeding. Test preparations, dispersed with Tween-20, were given orally 20 seconds prior to Ibuprofen.
The procedure is further elaborated in K. Rainsford and M. Whitehouse [J. Pharm.

[3] = system: adjuvant arthritis (onset); assay: Arthritis-ablating activity: test material incorporated into the arthritigenic adjuvant; assay type: in vivo, female Dark Agouti rats; settings: for activity in preventing (ablating) adjuvant arthritis: summary of Table 3; for effect on arthritis score (AS): most tested at 10 mg/rat, no effect = AS 2.5+
[4] = system: carrageenan-induced paw edema; assay: Carrageenan-induced paw edema (acute inflammation); assay type: in vivo, rat; settings: for ED50: Rattus norvegicus, oral, 45 minutes before carrageenan, read-out: effective dose for 50 percent reduction of the paw edema (ED50)
Description: To evaluate early i.e. rapid-acting therapeutic efficacy, carrageenan (1 mg in 0.1 ml saline) was injected into rear paws of rats to elicit a rapid onset (acute) inflammation. The ensuing paw edema was measured by the increase in paw thickness with a micrometer over the subsequent three hour period at hourly intervals.
The test drug formulations were given orally 45 minutes before injecting the carrageenan.

[5] = system: production of prostaglandin E2; assay: Production of prostaglandin E2 by pig gastric (fundic) mucosal explants; assay type: cell-based; settings: 10 μmol/L, pure samples
[6] = system: adjuvant arthritis (onset); settings: Haynes D R et al. Inflamm Res 45:159-165, 1996; cited from earlier work

## CC(=O)Oc1ccccc1C(=O)O [Aspirin]
[1]
  Mean % Inhibition of Arthritis Score: 25%
  Mean % Inhibition of Fore Paw Swelling: 24%
  Mean % Inhibition of Rear Paw Swelling: 40%
[2]
  incidence of gastric lesions and bleeding: 90%
[3]
  activity in preventing (ablating) adjuvant arthritis: not shared
[4]
  ED50: 200 mg/kg

## COc1c2ccoc2cc2oc(=O)ccc12 [Bergapten]
[3]
  activity in preventing (ablating) adjuvant arthritis: without such activity

## CCCCC1OC(=O)c2ccccc21 (stereo not shown) [Butylphthalide]
[1]
  anti-inflammatory activity: no anti-inflammatory or gastroprotective activity
[2]; tested at 50 mg/kg
  gastroprotective activity: no anti-inflammatory or gastroprotective activity
[3]
  activity in preventing (ablating) adjuvant arthritis: without such activity

## CC(C)Cc1ccc(C(C)C(=O)O)cc1 (stereo not shown) [Ibuprofen]
[1]; four successive oral doses, Ibuprofen 30 mg/kg, A-CSE 50 mg/kg, S-CSE 5 mg/kg
  suppression of arthritic paw swelling / inhibition of polyarthritis: 38%
[1]
  Mean % Inhibition of Arthritis Score: 36%
  Mean % Inhibition of Fore Paw Swelling: 39%
  Mean % Inhibition of Rear Paw Swelling: 38%
[2]; 50 mg/kg, free acid or Nurofen, suspension 5 ml/kg, pre-inflamed female Wistar rats, n=90
  mean number of haemorrhagic lesions (+/−SD): 42+/−06
[2]; Ibuprofen 50 mg/kg with no celery (n=90 rats) or with celery extracts (n=67 rats)
  animals with no macroscopically detectable gastric bleeding: 7%
[3]
  activity in preventing (ablating) adjuvant arthritis: not shared
[4]; Ibuprofen 15 mg/kg, Ketoprofen 1 mg/kg, alone, n=6, not statistically significant
  inhibition of paw swelling: 19%
[4]
  ED50: 45 mg/kg

## C=C(C)[C@H]1CC=C(C)CC1 [Limonene]
[1]
  anti-inflammatory activity: no anti-inflammatory or gastroprotective activity
[3]
  activity in preventing (ablating) adjuvant arthritis: without such activity
[5]
  effect on production of prostaglandin E2: not

## COc1ccc2cc([C@H](C)C(=O)O)ccc2c1 [Naproxen]
[1]
  Mean % Inhibition of Arthritis Score: 64%
  Mean % Inhibition of Fore Paw Swelling: 36%
  Mean % Inhibition of Rear Paw Swelling: 57%
[3]
  activity in preventing (ablating) adjuvant arthritis: not shared

## CCCCCCCCCCC/C=C\CCCCC(=O)OC [Petroselenic acid methyl ester]
[3]
  activity in preventing (ablating) adjuvant arthritis: without such activity

## CN1C(C(=O)Nc2ccccn2)=C(O)c2ccccc2S1(=O)=O [Piroxicam]
[2]
  incidence of gastric lesions and bleeding: 90%

## Cn1cnc([N+](=O)[O-])c1Sc1ncnc2nc[nH]c12 [azathioprine]
[3]
  effect on arthritis score (AS): no effect

## O=C(O)CCCc1ccc(N(CCCl)CCCl)cc1 [chlorambucil]
[3]
  effect on arthritis score (AS): no effect

## Nc1ccc(S(=O)(=O)c2ccc(N)cc2)cc1 [dapsone]
[3]
  effect on arthritis score (AS): no effect

## O=C(O)c1ccccc1Nc1cc(Cl)ccc1C(=O)O [lobenzarit]
[6]
  ablating the onset of arthritis: capable of ablating the onset of arthritis

## O=c1c(O)c(-c2cc(O)c(O)c(O)c2)oc2cc(O)cc(O)c12 [myricetin]
[5]
  effect on production of prostaglandin E2: inhibited

## O=c1c(O)c(-c2ccc(O)c(O)c2)oc2cc(O)cc(O)c12 [quercetin]
[5]
  effect on production of prostaglandin E2: inhibited
